# Laboratory results taken from patent US12600796B2, “Constructs for chimeric antigen receptors” (Carisma Therapeutics Inc., priority 2020, dated 2026).
# B1: CD40L: Recombinant CD40 ligand (Peprotech), a CD40 agonist (protein, UniProt P29965 113-261, looked up)
# CD40 ligand, soluble form: MQKGDQNPQIAAHVISEASSKTTSVLQWAEKGYYTMSNNLVTLENGKQLTVKRQGLYYIYAQVTFCSNREASSQAPFIASLCLKSPGRFERILLRAANTHSSAKPCGQQSIHLGGVFELQPGASVFVNVTDPSQVSHGTGFTSFGLLKL
# Assays:
# [1] = test system: HER2+ breast cancer cells (CRL2351); assay: Cytokine secretion of interferon-treated HER2 CAR macrophages co-cultured with cancer cells (MSD); format: cell-based, human; conditions: E:T 3:1, supernatant at 48 hours; FIG. 126
# Procedure: Human macrophages were electroporated with 150 nM HER2 CAR mRNA comprising m6AGCap1 and PsU modifications. HER2+ breast cancer cells (CRL2351) were co-cultured with CAR macrophages after the macrophages were transfected with the CAR mRNA at an Effector (CAR macrophage) to Target (cancer cell) ratio of 3:1. Supernatant was collected 48 hours after the cancer cells and macrophages were co-cultured and cytokine levels were measured using a Meso Scale Discovery (MSD) instrument.
# Human macrophages [2] = assay: Viability, CAR expression and M1/M2 markers of HER2 CAR mRNA-electroporated macrophages treated with interferons; format: cell-based; conditions: for M1 phenotype (based on CD86 expression): FIG. 121E; for M2 markers (based on CD163 expression): FIG. 121F
# Procedure: Human macrophages were electroporated with HER2 CAR mRNA comprising m6AGCap1 and PsU modifications. Cells were cultured with cytokines that induce an M1 phenotype such as IFN-alpha, IFN-beta, IFN-gamma, IFN-gamma plus lipopolysaccharide (LPS), TNF-alpha, IL-6 or a STING ligand (STING-L) for up to 48 hours and then cytokines were washed off and fresh media was added. CAR expression and M1 marker expression were measured on days 2 and 7 after transfection. Fluorescent labeled HER2+ breast cancer cells (CRL2351) were co-cultured with HER2 CAR macrophages two days after the macrophages were transfected. Cancer cell growth was monitored via its fluorescence on an Incucyte® live imaging microscope every four hours. The Effector (CAR macrophage) to Target (cancer cell) ratio was 5:1.
# Five different mRNA modifications were also tested to determine if interferon treatment differentially affected macrophages transfected with mRNA comprising different modifications. Human macrophages were electroporated with HER2 CAR mRNA comprising different mRNA modifications. CAR expression and M1 markers were detected by Flow Cytometry (Attune) on day four after electroporation. Day 4 CAR macrophage cells were then co-cultured with a Nuc-Light labeled, HER2+ breast cancer cell line (CRL2351) at an Effector (CAR macrophage) to Target (cancer cell) ratio of 5:1. Cancer cell growth was monitored via its fluorescence on an Incucyte® live imaging microscope every four hours.
# Human macrophages were electroporated with 300 nM CAR mRNA comprising m6AGCap1 and PsU modifications. Cells were cultured with 20 ng/mL IFNs for 24 hours and then the cells were washed to remove cytokines. CAR expression was detected by Flow Cytometry (Attune) on day 2 after transfection. Cells were then co-cultured with a Nuc-Light labeled, HER2+ breast cancer cell line (CRL2351) at the Effector to Target ratio of 3:1. Cancer cell growth was monitored via its fluorescence on an Incucyte® live imaging microscope. CAR expression and M1 markers in macrophages were detected by Flow Cytometry (Attune) on day 7 after transfection.
# Human macrophages [3] = assay: mCherry mRNA expression in transfected macrophages (Incucyte); format: cell-based; conditions: different doses, one day; FIG. 129
# Procedure: Human macrophages were transfected with mCherry mRNA comprising m6AGCap1 and PsU or N1mPsU modifications and were then cultured for one day with different doses of IFN-γ. mCherry expression was monitored on an Incucyte® live imaging microscope.
# In order to determine whether an RNaseL inhibitor could rescue IFN-γ-induced instability of transfected mRNA, human macrophages were treated with 1 μM sunitinib (an RNaseL inhibitor) two hours prior to the transfection of mCherry mRNA comprising m6AGCap1 and PsU modifications. Transfected cells were then cultured for one day with different dosages of IFN-γ. mCherry expression was monitored on an Incucyte® live imaging microscope.
# The effect of another RNaseL inhibitor (RLI or ABCE1) was also tested to further validate the concept. Human macrophages were co-transfected with mRNA encoding mCherry comprising m6AGCap 1 and PsU modifications and with mRNA encoding ABCE1.
# [4] = test system: primary human macrophages; assay: M1/M2 surface marker expression after priming with agonist proteins (flow cytometry); format: cell-based; conditions: mRNA CAR macrophages, 3 days on coated wells; FIGS. 5B, 6B, 7B
# Procedure: (§1) To generate Her2-Zeta CAR expressing macrophages, primary human macrophages were suspended in EP buffer (MaxCyte) containing 300 nM mRNA (TriLink) at a concentration of 90×10^6 cells/mL. 100 μL of cell mixture was added to an electroporation cassette (OC100×2; MaxCyte) and electroporated using the Experimental T cell 1 setting. Cells were removed from the cassette, plated in 3 mL of TexMACS media (Miltenyi Biotech) containing 20% FBS (Gibco) on UpCell plates (Thermo Scientific), and incubated overnight at 37 C and 5% CO2.
# (§2) Recombinant CD40 ligand (Peprotech), 4-1BB ligand (Enzo Life Sciences), and 4-1BB receptor (Peprotech) were resuspended in molecular grade water to a stock concentration of 100 μg/mL. Stock solution was then used to create working solutions in PBS ranging from 2-0.002 μg/mL. 100 uL of working solution was added to wells in a 96-well plate and left at room temperature for 4 h.
# For detection of cell surface proteins, macrophages were plated onto wells coated with agonist molecules in a final volume of 200 uL TexMACS media+10% FBS+10 ng/mL GM-CSF and incubated for 3 days at 37 C and 5% CO2. Cells were incubated in 300 μL Accutase (Sigma) for 30 min and transferred to 96-well round bottom plate for staining. Cells were incubated in FACS buffer containing 20 μg/mL Her2-His for 20 min at RT, followed by incubation in Human TruStain FcX for 10 min at RT. […]
# [5] = test system: CRL-2351 cells expressing nuclear GFP; assay: Tumor killing by macrophages and Her2-Zeta CAR macrophages primed with plate-coated agonist proteins (Incucyte); format: cell-based, human; conditions: plate-coated protein, 3 h priming; FIGS. 5A, 6A, 7A
# Procedure: as §1, §2
# Plates were removed from the incubator and left at room temperature for 30 min. Cells were detached from plate, counted using the NC-200 automated cell counter (Chemomtech), and re-suspended in TexMACS media with 10% FBS. […] Cell lysis was detected using Incucyte® analysis (Essen Bioscience). Tumor cell death was calculated by integrated GFP intensity per well relative to time 0.
Molecule,"secretion of IL-6, IL-8 and TNFα [1]",M1 phenotype (based on CD86 expression) (Human macrophages [2]),M2 markers (based on CD163 expression) (Human macrophages [2]),mCherry mRNA expression (Human macrophages [3]),M1 phenotype (M1 and M2 markers) [4],tumor killing ability of macrophages and CAR macrophages [5]
IFN-α,"increased secretion of the cytokines IL-6, IL-8 and TNFα",induction of an M1 phenotype,reduction of M2 markers,,,
IFN-γ: interferon cytokine that induces an M1 phenotype,"increased secretion of the cytokines IL-6, IL-8 and TNFα",induction of an M1 phenotype,reduction of M2 markers,reduced mCherry mRNA expression,,
B1,,,,,induced an M1 phenotype,significantly improved the tumor killing ability
